According to patent US5955100A, “Prodrugs their preparation and use as pharmaceuticals” (priority 1992, dated 1999):

Columns and labels:
[1] = Baba et al., Gann 69, 1978; cited from earlier work
[2] = system: human tumor xenografts (ovarian, breast, stomach, lung and bowel carcinomas); experiment: Prodrug activation/monotherapy in human tumor xenografts; format: in vivo, human tumor in nude mouse
Description: It was possible to show by means of a histochemical test (Murray et al., the journal of histochemistry and cytochemistry 37, 643-652, 1989) for determining. functional human β-glucuronidase that functionally active human .rho.-glucuronidase is present within the necrosis; i.e. cells whose cytoplasmic membrane has already been damaged still contain functionally active β-glucuronidase in the cytoplasm. This human β-glucuronidase which is localized in the necrosis and is not protected by the cytoplasmic membrane brings about the cleavage of the hydrophilic prodrug to the drug in the LoVo tumor.

[3] = Acute toxicity in nude mice (LD50, survival on day 14); conditions: mouse, in vivo, iv, nude mice (CD-1, nu/nu), 5 min infusion
Experimental: To determine the acute toxicity, nude mice (CD-1, nu/nu) were infused on day 0 with various doses of the test substance dissolved in 0.5 ml of 5% glucose solution over a period of 5 minutes. Control groups receive merely 0.5 ml of 5% glucose solution. 5 mice are used per concentration of the test substance. The number of mice surviving on day 14 is determined, and the Litchfield Wilcoxon method is used to determine the LD50.

[4] = system: human colon tumors (LoVo); experiment: Inhibition of growth of human colon tumors (LoVo) growing subcutaneously in the nude mouse; format: in vivo, human tumor in nude mouse; conditions: for T/C: 1 × i.v., d0
Experimental: The tested human tumors are routinely maintained and passaged in nude mice. The tumors are tested for human characteristics by immunohistochemistry using monoclonal antibodies at each 3rd passage. The tumor is removed under sterile conditions and cut into small pieces of about 5-10 mm^3. One piece of tumor is implanted subcutaneously into the side of each nude mouse. After about 7-14 days, the piece of tumor is adherent to the surrounding tissue, and the tumor size A is determined with the aid of a calliper rule and measurement of two opposite diameters (a, b) by the following formula: […]
After another measurement of the tumor size carried out at an interval of 3 days, the animals are randomized to the control group and to the groups to be treated (6 animals in each group). Only animals in which a progressive tumor growth was found are used for this. Starting with the day of randomization ([…]), the animals are treated with the test substances in accordance with the scheme indicated below. Twice a week the two tumor diameters are measured for each mouse, and the individual tumor areas are calculated in accordance with the abovementioried formula.
After completion of the experiment, the relative tumor sizes for each individual animal on the particular measurement day are calculated by the formula: Ar =A(day X) /A(day 0). The median for the treated group (AT) is then related to the median for the relative control tumor size (AC), and T/C%=AT /AC […] is calculated. The statistical significance of the antitumor effect is determined with the aid of the Wilcoxon U test.

[5] = system: Salmonella typhimurium antigen (STA) induced foot swelling; experiment: Delayed Type Hypersensitivity (DTH), 24 h foot swelling; format: in vivo, mouse
Description: c) DTH model in the mouse
The effect of 14-O-[4-(beta-D-glucuronyloxy)-3nitrobenzylaminocarbonyl]doxorubicin (prodrug) on inflammation was investigated in a model of delayed type cutaneous reaction (Delayed Type Hypersensitivity, DTH) corresponding to the method described by Collins and Mackaness (J. Immunol. 101: 830-845,1968).
In this model, mice were immunized with a defined amount of killed Salmonella typhimurium bacteria (109) twice at an interval of one week. Three. weeks after the first immunization a DTH reaction was provoked by intraplantar injection of a Salmonella typhimurium antigen (STA). A local inflammatory infiltrate which was composed of granulocytes, macrophages, lymphocytes and accumulated interstitial fluid developed. The extent of the reaction was measured by the increase in foot swelling 24 hours after provocation of the reaction. The effect of the prodrug on the inflammatory reaction was tested with two treatment schemes. One group received a single intravenous administration of 500 mg/kg prodrug 2 hours after the STA injection, and another group received three injections of, in each case, 300 mg/kg prodrug at times 2, 5 and 8 hours after the STA injection.

[6] = Plasma half-life after i.v. injection, liposomal and free prodrug; format: in vivo, CD1 nu/nu mice
[7] = system: adjuvant arthritis; experiment: Adjuvant arthritis in the rat; format: in vivo
Description: b) Adjuvant arthritis in the rat

[8] = system: EAE; experiment: EAE model; format: in vivo
Description: Schorlemmer et al., Drugs Exptl. Clin. Res. XVII (10/11) 461-469 (1991)

[9] = system: mouse mammary carcinoma; conditions: ten i.v. administrations and glucose acidification; treatment started 24 h after implantation; cited from earlier work
[10] = butyric acid liberated from prodrugs in vivo; cited from earlier work

In the case of O=c1[nH]cc(F)c(=O)[nH]1 [Compound 5-FU, 5-fluorouracil], the LD50 [1] is listed as 200 mg/kg.

With COc1cccc2c1C(=O)c1c(O)c3c(c(O)c1C2=O)C[C@@](O)(C(=O)COC(=O)NCc1ccc(O[C@@H]2O[C@H](C(=O)O)[C@@H](O)[C@H](O)[C@H]2O)c([N+](=O)[O-])c1)C[C@@H]3O[C@H]1C[C@H](N)[C@H](O)[C@H](C)O1 [Compound 8, 14-O-[4-(Beta-D-glucuronyloxy)-3-nitrobenzylaminocarbonyl]doxorubicin] the “effect of prodrug monotherapy on tumors without significant necrosis” value ([2]; non-necrotic tumors (data not shown)) was “cannot be treated by prodrug monotherapy”, the “endogenous activation by central necrosis” value ([2]; ovarian, breast, stomach, lung and bowel carcinoma xenografts) was “confirmed in a large number of human tumor xenografts” and the LD50 at 336 h [3] was over 1500 mg/kg. The T/C ([4]; 500 mg/kg, listed as Prodrug) was 40.0%, the T/C ([4]; 500 mg/kg, listed as prodrug) was ~ 40% and the “efficacy compared with fusion protein in combination with prodrug” value ([4]; LoVo, prodrug alone) was “as effective as in the group which received fusion protein in combination with prodrug”. For the same molecule, the “statistical significance (p) of difference to doxorubicin treatment” value ([4]; tumor growth, vs doxorubicin treatment) was under 0.05, the “24 h foot swelling” value ([5]; 300 mg/kg, 3 × i.v. (t = +2, +5, +8 h), marked xx) was 1.1 ± 1.3 and the “24 h foot swelling” value ([5]; 500 mg/kg, 1 × i.v. (t = +2 h), mean ± spread, marked x) was 3.5 ± 3.9. The “effect by comparison with standard therapy” value ([5]; DTH) was “superior effect”, the “reduction in the inflammatory reaction” value ([5]; both prodrug treatment schemes) was “significant reduction in the inflammatory reaction” and the “effect compared with ibuprofen” value ([5]; three administrations of prodrug (300 mg/kg)) was “slightly superior to the standard therapy”. For the same molecule, the half-life ([6]; mouse, plasma, iv, free prodrug, CD1 nu/nu mice (data not shown)) was about 20 min and the “increase in plasma half-life after protein preincubation” value ([6]; preincubation with 50 g/l human serum albumin or human acid alpha-1 glycoprotein) was “less distinct increase in the plasma half-life”.

With CC(OC(=O)OCc1ccc(O[C@@H]2O[C@H](C(=O)O)[C@@H](O)[C@H](O)[C@H]2O)c([N+](=O)[O-])c1)=C(C#N)C(=O)Nc1ccc(C(F)(F)F)cc1 [Compound 22, 4-(β-D-Glucuronyloxy)-3-nitrobenzyl 2-[1-cyano-1-(N-4-trifluoromethylphenyl)carbamoyl]propen-1-yl carbonate] the “activity by comparison with the active substance (Leflunomide)” value [7] was “superior activity” and the “activity by comparison with the active substance (Leflunomide)” value [8] was “superior activity”.

In the case of COc1cccc2c1C(=O)c1c(O)c3c(c(O)c1C2=O)C[C@@](O)(C(=O)CO)C[C@@H]3O[C@H]1C[C@H](N)[C@H](O)[C@H](C)O1 [Doxorubicin, doxorubicin, reference compound], the T/C ([4]; 12 mg/kg) was 78.4% and the T/C ([4]; 12 mg/kg, listed as doxorubicin) was ~ 80%.

In the case of O=C(O)[C@H]1O[C@@H](Oc2nc(=O)[nH]cc2F)[C@H](O)[C@@H](O)[C@@H]1O [FUOG, 5-fluorouracil O-.rho.-D-glucuronide], the “effect on mouse mammary carcinoma” value [9] is given as “distinct effect”.

With CC(C)Cc1ccc(C(C)C(=O)O)cc1 (stereo not shown) [Ibuprofen, ibuprofen, reference compound] the “24 h foot swelling” value ([5]; 200 mg/kg, 1 × p.o. (t = 0), marked xx) was 1.7 ± 2.2.

For CCCC(=O)O [butyric acid], the “therapeutic effects compared with cisplatin” value [10] is listed as “inferior to those of a standard cytostatic (cisplatin)”.
